Measurements published in PMC10245146, “CNS4 causes subtype‐specific changes in agonist efficacy and reversal potential of permeant cations in NMDA receptors” (Pharmacology Research & Perspectives, 2023).

What was measured:
[1] = target: T1, GluN1/2A receptors (UniProt P35439+Q12879); test: Whole-cell patch-clamp, HEK293T cells expressing recombinant GluN1/2A; format: cell-based; details: 100 μM CNS4 applied 4 s before and with 100 μM glutamate + 100 μM glycine; agonist alone −323.5 ± 82 pA; n = 4(3), p = .12
T1 construct: expressed in transfected cells; host or cells: HEK-293T
T1 sequence (Q12879 23-1464, other chains not shown): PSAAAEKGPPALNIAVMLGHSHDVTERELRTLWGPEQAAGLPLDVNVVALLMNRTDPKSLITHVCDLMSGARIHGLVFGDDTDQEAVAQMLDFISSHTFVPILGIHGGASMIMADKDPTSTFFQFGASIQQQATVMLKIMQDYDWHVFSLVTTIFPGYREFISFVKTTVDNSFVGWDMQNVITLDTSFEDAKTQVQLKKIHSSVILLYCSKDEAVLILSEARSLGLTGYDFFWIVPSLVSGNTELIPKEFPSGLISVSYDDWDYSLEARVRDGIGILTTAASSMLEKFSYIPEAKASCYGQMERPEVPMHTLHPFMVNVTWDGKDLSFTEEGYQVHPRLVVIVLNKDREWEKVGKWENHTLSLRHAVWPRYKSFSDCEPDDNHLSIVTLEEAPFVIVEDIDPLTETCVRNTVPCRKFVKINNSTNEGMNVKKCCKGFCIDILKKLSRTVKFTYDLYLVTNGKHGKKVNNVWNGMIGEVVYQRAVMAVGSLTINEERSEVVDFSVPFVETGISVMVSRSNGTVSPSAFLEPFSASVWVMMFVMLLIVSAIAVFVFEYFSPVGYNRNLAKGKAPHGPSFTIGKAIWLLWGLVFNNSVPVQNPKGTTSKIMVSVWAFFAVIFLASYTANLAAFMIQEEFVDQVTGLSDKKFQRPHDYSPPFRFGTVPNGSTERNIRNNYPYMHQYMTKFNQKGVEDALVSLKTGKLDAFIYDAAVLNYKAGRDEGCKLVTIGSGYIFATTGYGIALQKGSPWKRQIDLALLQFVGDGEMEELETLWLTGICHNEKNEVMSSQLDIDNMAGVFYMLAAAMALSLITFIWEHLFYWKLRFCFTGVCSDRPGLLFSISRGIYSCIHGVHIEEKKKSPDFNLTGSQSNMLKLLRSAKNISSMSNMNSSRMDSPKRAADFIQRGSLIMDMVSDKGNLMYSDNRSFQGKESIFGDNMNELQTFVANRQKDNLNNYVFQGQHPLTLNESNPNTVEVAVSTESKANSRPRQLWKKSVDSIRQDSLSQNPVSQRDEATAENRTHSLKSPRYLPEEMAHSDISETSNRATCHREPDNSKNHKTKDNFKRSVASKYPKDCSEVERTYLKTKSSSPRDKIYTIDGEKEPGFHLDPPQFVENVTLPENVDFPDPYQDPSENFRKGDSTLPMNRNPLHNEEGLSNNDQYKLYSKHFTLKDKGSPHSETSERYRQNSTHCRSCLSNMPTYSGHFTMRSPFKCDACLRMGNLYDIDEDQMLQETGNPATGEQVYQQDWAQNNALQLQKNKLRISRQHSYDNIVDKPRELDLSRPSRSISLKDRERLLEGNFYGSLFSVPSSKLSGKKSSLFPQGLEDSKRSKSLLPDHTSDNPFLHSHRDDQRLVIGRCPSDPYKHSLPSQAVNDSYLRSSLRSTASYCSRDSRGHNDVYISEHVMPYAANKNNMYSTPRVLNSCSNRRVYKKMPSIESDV
Description: (§1) Whole‐cell patch‐clamp electrophysiology studies were carried out in HEK‐293T cells expressing recombinant NMDA receptors that lack native functional NMDA receptors.[29], [30], [31] An equal quantity of (1 μg) cDNA for GluN1a, GluN2 subunits were co‐transfected 24‐48 h before patch‐clamp electrophysiology assay. […] Cells were carefully washed before performing experiments and were used for the electrophysiology experiments after 24 to 48 h incubation at 37°C with 5%CO2. The whole‐cell patch‐clamp electrophysiology assay was performed using semi‐automated patch‐clamp equipment, Port‐a‐Patch (Nanion Technologies GmbH). Following are the constituents of various solutions used for patch‐clamp electrophysiology: internal solution ([mM] NaCl 10, EGTA 20, CsF 110, HEPES 10), Mg‐free external (recording) solution ([mM] NaCl 140, KCl 4, CaCl2 2, HEPES 10, D‐GlucoseMonohydrate 5), and Mg‐free seal enhancer solution ([mM] NaCl 80, KCl 3, CaCl2 35, HEPES 10). Nanion NPC chips with […] resistance were used for the HEK‐293T cell recordings.
(§2) FIGURE 1 CNS4 sensitizes ambient concentration of agonists in GluN2 subunit dependent manner. […] Statistical significance was calculated from the Wilcoxon matched‐pairs signed rank test, except the comparison between 1/2A & 1/2AB CNS4 with no agonist data, which was done by unpaired t‐test. […]

[2] = system: untransfected HEK293T cells; test: Whole-cell patch-clamp on untransfected HEK293T cell; format: cell-based, human; details: 100 μM CNS4
Description: as §1, §2

O=C(NC(=S)N1CCCCC1c1cccnc1)c1ccc(F)cc1 (centres unmarked) [CNS4]
Peak current amplitude [1]: −469.3 ± 152 pA
Current response [2]: did not produce any measurable current response
